Experimental data: ChEMBL document CHEMBL1201862, “PubChem BioAssay data set” (2004)
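The compound was tested at five concentrations on cells cultured in 96-well plates, with a 48-hour exposure period. GI50: concentration for 50% inhibition of growth.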 Calls of active or inactive are those of the source. Cut-off read from the data, not from the text of the source: active = GI50 up to about 1.1 µM and inactive = higher.

What was measured:
Assay in all cases: NCI tumour cell line growth inhibition, 48 h
786-0 = tested on: 786-0
A498 = tested on: A498
A549 = tested on: A549
ACHN = tested on: ACHN
CAKI-1 = tested on: CAKI-1
CCRF-CEM = tested on: CCRF-CEM
DLD-1 = tested on: DLD-1
DMS-114 = tested on: DMS-114
DMS-273 = tested on: DMS-273
EKVX = tested on: EKVX
HCT-116 = tested on: HCT-116
HL-60 = tested on: HL-60
HOP-62 = tested on: HOP-62
HOP-92 = tested on: HOP-92
HT-29 = tested on: HT-29
IGROV-1 = tested on: IGROV-1
K562 = tested on: K562
KM12 = tested on: KM12
LXFL 529 = tested on: LXFL 529
M14 = tested on: M14
M19-MEL = tested on: M19-MEL
MOLT-4 = tested on: MOLT-4
Malme-3M = tested on: Malme-3M
NCI-H226 = tested on: NCI-H226
NCI-H23 = tested on: NCI-H23
NCI-H460 = tested on: NCI-H460
NCI-H522 = tested on: NCI-H522
OVCAR-3 = tested on: OVCAR-3
OVCAR-4 = tested on: OVCAR-4
OVCAR-5 = tested on: OVCAR-5
OVCAR-8 = tested on: OVCAR-8
RXF 393 = tested on: RXF 393
RXF 631 = tested on: RXF 631
SF-268 = tested on: SF-268
SF-295 = tested on: SF-295
SF-539 = tested on: SF-539
SK-MEL-28 = tested on: SK-MEL-28
SK-MEL-2 = tested on: SK-MEL-2
SK-MEL-5 = tested on: SK-MEL-5
SK-OV-3 = tested on: SK-OV-3
SN12C = tested on: SN12C
SNB-19 = tested on: SNB-19
SNB-75 = tested on: SNB-75
SNB-78 = tested on: SNB-78
SR = tested on: SR
SW-620 = tested on: SW-620
TK-10 = tested on: TK-10
U-251 = tested on: U-251
UACC-257 = tested on: UACC-257
UACC-62 = tested on: UACC-62
UO-31 = tested on: UO-31
XF498 = tested on: XF498

Measured: GI50

CC(C)(C)OC(=O)N1C2CCCC23O[C@@H]1c1cc2c(cc1C3=O)OCO2 (some centres not stated)
inactive: 786-0 34.5 µM | A498 > 10 µM | A549 29.4 µM | ACHN 54.1 µM | CAKI-1 9.57 µM | CCRF-CEM 21.1 µM | DLD-1 27.1 µM | DMS-114 19.9 µM | DMS-273 6.27 µM | EKVX 43.9 µM | HCT-116 36.3 µM | HL-60 5.25 µM | HOP-62 23.6 µM | HOP-92 28.6 µM | HT-29 14.5 µM | IGROV-1 20 µM | K562 6.5 µM | KM12 14.4 µM | LXFL 529 44.3 µM | M14 12.3 µM | M19-MEL 26.6 µM | MOLT-4 24.6 µM | Malme-3M 25.6 µM | NCI-H226 81.1 µM | NCI-H23 24.9 µM | NCI-H460 34 µM | NCI-H522 8.89 µM | OVCAR-3 8.81 µM | OVCAR-4 > 100 µM | OVCAR-5 > 100 µM | OVCAR-8 61.1 µM | RXF 393 24.5 µM | RXF 631 27.2 µM | SF-268 41.8 µM | SF-295 20.8 µM | SF-539 19.5 µM | SK-MEL-28 67.3 µM | SK-MEL-2 53.3 µM | SK-MEL-5 4.41 µM | SK-OV-3 27.3 µM | SN12C 41.2 µM | SNB-19 39.2 µM | SNB-75 12.6 µM | SNB-78 > 100 µM | SR 32.1 µM | SW-620 22.4 µM | TK-10 41 µM | U-251 41.3 µM | UACC-257 52.8 µM | UACC-62 6.24 µM | UO-31 39.6 µM | XF498 26.6 µM
